One compound from paper PMC8050276, “Estradiol analogs attenuate autophagy, cell migration and invasion by direct and selective inhibition of TRPML1, independent of estrogen receptors” (Scientific Reports, 2021) can be followed below.

Assay [1] addresses T1, hTRPML1L15/16A, L577/578A (Homo sapiens, UniProt Q9GZU1, L15A/L16A).
T1 construct: host or cells: HEK293, FLP-in-Tet-On, tetracycline-induced
Description: Whole-cell patch-clamp, tetracycline-inducible HEK293 hTRPML1L15/16A, L577/578A. The format is cell-based. Particulars: 30 µM ML-SA1, pH 4.6; read-out: TRPML1 IC50, whole-cell patch-clamp. The method, then: For whole-cell patch-clamp experiments tetracycline-inducible hTRPML1L15/16A, L577/578A, hTRPML2 and TRPML3 HEK293 cell lines were used, generated by ICAGEN Inc. using the FLP-in-Tet-On system. Experiments were performed as described previously[20],[42]. In brief, cells were cultured on coverslips (Fisherbrand, Fisher Scientific) in complete DMEM medium with 10% FBS (Thermo Fisher). HEK293 cells expressing the desired channel protein were patch-clamped after overnight induction with tetracycline (1 µg/mL). […] The pipette solution contained (mM) 122 Cs‐methanosulfonate, 4 NaCl, 10 EGTA, 2 Na-ATP, 2 MgCl2 and 20 HEPES, pH 7.2 (with CsOH). The standard bath solution contained (mM) 153 NaCl, 5 KCl, 2 CaCl2, 1 MgCl2, 20 HEPES and 10 Glucose (pH 7.4 with NaOH). The low pH bath solution contained (mM) 150 Na-Gluconate, 5 KCl, 2 CaCl2, 1 MgCl2, 10 glucose, 10 HEPES and 10 MES (pH 4.6). Whole‐cell currents were recorded using a Multiclamp 700B amplifier (Molecular Devices) with low‐pass filtering at 3 kHz. The currents were digitized at a sampling frequency of 10 kHz using BNC-2110 and PCI-6221 with NI-DAQmx (National Instruments) and stored directly to a hard drive. Current recording was done with WinWCP5.2.7 (University of Strathclyde, UK) software, and analysis was done with the help of a customized Igor pro program (WaveMetrics).
(In general: The patch-clamp technique gives a direct electrical read-out from membranes.)

In the next assay the test system is TFEB. Description: TFEB shift / nuclear translocation upon nutrient starvation. The format is cell-based, human. As to conditions: EDME 1 µM, Hbss. The method, then: 5 × 10^4 wild-type human fibroblasts were seeded in a 12-well plate and treated overnight with DMSO or different TRPML1 inhibitors (EDME, PRU-10, PRU-12). The day after, cells were treated for 3 h in full media (Fed) or HBSS supplemented with 10 mM HEPES (nutrient starved) in presence of DMSO or different TRPML1 inhibitors (EDME, PRU-10, PRU-12). For autophagic flux experiments, cells were co-treated with 100 nM of bafilomycin A1 (Sigma).
Total cell lysates were prepared using TRIS HCl 10 mM pH 8.0 and 0.2% SDS supplemented with protein and phosphatase inhibitors (Sigma). Protein concentration was determined using the Bradford method. After SDS–polyacrylamide gel electrophoresis (PAGE) and immunoblotting, the protein recognized by the specific antibody was visualized by chemiluminescence methods (Luminata Crescendo Western HRP substrate, Millipore) using HRP-conjugated anti-rabbit or anti-mouse secondary antibodies (Cell Signalling). Images were acquired using Li-Cor Odyssey Fc Imaging System and densitometric quantification of unsaturated images was performed using ImageJ software (NIH). Uncropped and unprocessed western blot scans are provided as Fig. S1. The following primary antibodies were used: LC3 (Novus Cat. No. NB100-2220, 1:1000 in 5% milk), TFEB (Cell Signaling Cat. No. 4240, 1:1000 in 5% BSA) and β-actin (Santa Cruz Cat. No. Sc-47778, 1: 1000 in 5% BSA).

The next assay has as its target T2, hTRPML2 (Homo sapiens, UniProt Q8IZK6).
T2 construct: host or cells: HEK293, FLP-in-Tet-On, tetracycline-induced
T2 sequence (Q8IZK6 1-566): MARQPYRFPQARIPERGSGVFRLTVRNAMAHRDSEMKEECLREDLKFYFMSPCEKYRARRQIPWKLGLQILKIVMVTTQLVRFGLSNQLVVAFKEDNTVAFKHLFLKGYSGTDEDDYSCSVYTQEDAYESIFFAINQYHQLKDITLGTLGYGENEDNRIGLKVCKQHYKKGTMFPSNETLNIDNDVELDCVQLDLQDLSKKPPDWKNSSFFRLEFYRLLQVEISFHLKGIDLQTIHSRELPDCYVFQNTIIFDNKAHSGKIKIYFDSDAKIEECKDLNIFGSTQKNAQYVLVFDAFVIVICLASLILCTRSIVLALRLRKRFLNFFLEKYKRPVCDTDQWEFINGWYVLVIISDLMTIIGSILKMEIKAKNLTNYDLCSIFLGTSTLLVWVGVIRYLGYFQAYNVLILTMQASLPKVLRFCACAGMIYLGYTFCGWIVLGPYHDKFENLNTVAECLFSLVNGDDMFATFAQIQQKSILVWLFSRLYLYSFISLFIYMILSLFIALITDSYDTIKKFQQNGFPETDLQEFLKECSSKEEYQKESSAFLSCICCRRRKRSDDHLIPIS
The assay is described as follows: Whole-cell patch-clamp, tetracycline-inducible HEK293 hTRPML2. The format is cell-based. Particulars: 30 µM ML-SA1, pH 7.4; read-out: TRPML2 IC50, whole-cell patch-clamp. How it is done: Experiments were performed as described previously[20],[42]. In brief, cells were cultured on coverslips (Fisherbrand, Fisher Scientific) in complete DMEM medium with 10% FBS (Thermo Fisher). HEK293 cells expressing the desired channel protein were patch-clamped after overnight induction with tetracycline (1 µg/mL). […] The low pH bath solution contained (mM) 150 Na-Gluconate, 5 KCl, 2 CaCl2, 1 MgCl2, 10 glucose, 10 HEPES and 10 MES (pH 4.6). Whole‐cell currents were recorded using a Multiclamp 700B amplifier (Molecular Devices) with low‐pass filtering at 3 kHz. […] Current recording was done with WinWCP5.2.7 (University of Strathclyde, UK) software, and analysis was done with the help of a customized Igor pro program (WaveMetrics).

T1 sequence (Q9GZU1 with tags, fused parts or gaps L15A/L16A): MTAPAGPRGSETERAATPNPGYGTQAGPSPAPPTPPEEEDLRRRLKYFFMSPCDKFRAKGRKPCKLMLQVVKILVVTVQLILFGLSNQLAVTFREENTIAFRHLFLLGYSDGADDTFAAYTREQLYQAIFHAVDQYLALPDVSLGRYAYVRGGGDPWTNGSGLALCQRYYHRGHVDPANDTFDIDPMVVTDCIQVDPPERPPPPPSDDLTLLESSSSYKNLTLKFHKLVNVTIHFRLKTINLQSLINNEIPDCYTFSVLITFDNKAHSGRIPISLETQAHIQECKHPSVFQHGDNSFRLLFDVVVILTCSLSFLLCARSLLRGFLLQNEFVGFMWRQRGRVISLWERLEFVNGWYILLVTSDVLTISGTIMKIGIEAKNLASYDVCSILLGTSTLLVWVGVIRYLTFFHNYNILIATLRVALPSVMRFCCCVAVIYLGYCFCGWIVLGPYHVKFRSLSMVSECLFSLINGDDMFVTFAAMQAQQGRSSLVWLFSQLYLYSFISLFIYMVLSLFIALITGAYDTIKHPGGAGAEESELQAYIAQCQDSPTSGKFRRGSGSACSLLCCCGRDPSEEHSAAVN

One may read the IC50 as the concentration at which inhibition is half-maximal. For the compound `COc1ccc2c(c1)CC[C@@H]1[C@@H]2CC[C@]2(C)[C@@H](O)CC[C@@H]12` [EDME, 17β-estradiol methyl ether], the IC50 came to 220 nM in assay [1] and 3800 nM on hTRPML2. For the same compound, the “TFEB molecular downshift induced by nutrient starvation” value in the assay on TFEB is recorded as “reduced”.
